# How the values were obtained:
# [1] = test system: Human corpus cavernosum tissue; experiment: Relaxation of human corpus cavernosum tissue strips contracted with phenylephrine (organ chamber); conditions: for Relative potency in relaxing human corpus cavernosum tissue (FIG. 1B): after treatment with 0.02 μM SQ 29548; for Relaxation response in tissue from diabetic compared to non-diabetic patients (FIG. 4A, 4B): increasing concentrations of the prostaglandin alone
# Method: (§1) Human corpus cavernosum specimens were obtained from impotent men at the time of penile prosthesis insertion. Tissues were maintained at 4-6° C. in M-400 solution, pH 7.4 (composition per 100 ml: mannitol, 4.19 g; KH2PO4, 0.205 g; K2HPO4.3H2O, 0.97 g; KCl, 0.112 g; NaHCO3, 0.084 g) until used. Corpus cavernosum tissues were typically used between 2 and 16 hours from extraction.
# (§2) Measurement of the relaxation of corpus cavemosal tissue was carried out as follows. Corpus cavernosal tissue strips (3×3×7 mm) were immersed in a 8 ml organ chamber containing physiological salt solution, maintained at 37° C. and aerated with 5% CO2/95% air, pH 7.4. The tissues were then contracted with phenylephrine (1 μM) and the relaxation response was evaluated after the cumulative addition of the compound to the organ chamber.
# (§3) In experiments where the effect of the thromboxane A2 receptor antagonist, SQ 29548 , was measured, […] was added 20 minutes before the addition of phenylephrine. In experiments where the effect of the thromboxane A2 agonist, U 46619 was measured, U 46619 was added after the phenylephrine-induced contractions stabilized, and then prostaglandin PGE1 was added 10 minutes later, if required.
# The data are expressed as mean i standard error of the percentage of total relaxation induced by 100 μM papaverine hydrochloride. Statistical analysis were conducted using a two-factor ANOVA statistical analysis using StatView software for Apple computers.
# [2] = test system: Human corpus cavernosum tissue; experiment: Contractile response of human corpus cavernosum tissue from diabetic and non-diabetic patients to U 46619; conditions: tissue from diabetic vs non-diabetic patients; P<0.01
# Method: as §1, §2, §3
# The tissues were prepared according to Example 1. […]
# [3] = test system: Human corpus cavernosum resistance arteries (helicine arteries); experiment: Relaxation of human corpus cavernosum resistance arteries contracted with norepinephrine (myograph); conditions: SQ 29548 0.02 μM; increasing concentrations of acetylcholine; contracted with 1 μM norepinephrine; P<0.01
# Method: Human corpus cavernosum tissues were prepared according to Example 1. Penile small arteries, helicine arteries (lumen diameter 150-400 μ), which are the terminal branches of deep penile arteries, were dissected by carefully removing the adhering trabecular tissue. Arterial ring segments (2 mm long) were subsequently mounted on two 40 μm wires on microvascular double Halpern-Mulvany myographs (J. P. Trading, Aarhus, Denmark) for isometric tension recordings.
# Measurement of the relaxation of corpus cavernosal resistant arteries was carried out as follows. […]
# The segments were then exposed to 125 mM K^+ (physiological salt solution potassium salt form, by the equimolar substitution of […] in physiological salt solution) and the contraction response was measured. The arteries were contracted with 1 μM norepinephrine and relaxation responses were evaluated by cumulative additions of the acetylcholine (1 nM to 3 μ) to the organ chamber. The segments were washed with fress physiological salt solution, treated with the thromboxane inhibitor SQ 29548 (0.02 μM) and the response to acetylcholine measured again.
# [4] = contracted with 1 μM phenylephrine
smiles,measurement,setting,value
CCCCC[C@H](O)CC[C@H]1[C@H](O)CC(=O)[C@@H]1CCCCCCC(=O)O [PGE0],Relative potency in relaxing human corpus cavernosum tissue (FIG. 1B),[1]; [4],equipotent
same,Response of the tissue to increasing concentrations of the prostaglandin alone (FIG. 1A),"[1]; higher concentrations of PGE0, absence of SQ 29548, contracted with 1 μM phenylephrine",significant contraction of the tissue
same,Relaxation response in tissue from hypertensive compared to non-hypertensive patients (FIG. 7),"[1]; increasing concentrations of PGE0, contracted with 1 μM phenylephrine, P<0.01",significant reduction in the relaxation of the tissue from hypertensive patients
same,"Relaxation response in tissue from diabetic compared to non-diabetic patients (FIG. 4A, 4B)",[1]; [4],significant reduction in the relaxation of the tissue from diabetic patients
CCCCC[C@H](O)/C=C/[C@@H]1[C@@H](C/C=C\CCCC(=O)O)[C@H]2CO[C@@H]1C2 [U 46619],Effect of the thromboxane A2 receptor agonist on the relaxation induced by PGE1 (FIG. 3),"[1]; U 46619 0.003 μM, increasing concentrations of prostaglandin, P<0.01",significant contraction of the tissue
same,Contraction response induced by increasing concentrations of the thromboxane agonist (FIG. 6),[2],significant contraction of the tissue obtained from diabetic patients
O=C(O)CCC/C=C\C[C@@H]1[C@H](CNNC(=O)Nc2ccccc2)[C@H]2CC[C@@H]1O2 [SQ 29548],Effect of the thromboxane A2 receptor antagonist on the relaxation induced by PGE0 (FIG. 2),"[1]; SQ 29548 0.02 μM, added 20 minutes before phenylephrine, increasing concentrations of PGE0, P<0.01",significant relaxation of the tissue
same,Effect on the reduced relaxation to PGE0 of tissue from diabetic patients (FIG. 5),"[1]; addition of 0.02 μM SQ 29548, diabetic vs non-diabetic tissue",This reduction in the relaxation of the tissue was eliminated
same,Effect of the thromboxane A2 receptor antagonist on the relaxation induced by acetylcholine (FIG. 8),[3],significant relaxation of the tissue
"CCCCC[C@H](O)/C=C/[C@H]1[C@H](O)CC(=O)[C@@H]1CCCCCCC(=O)O [PGE1, alprostadil]",Relative potency in relaxing human corpus cavernosum tissue (FIG. 1B),[1]; [4],equipotent
same,"Relaxation response in tissue from diabetic compared to non-diabetic patients (FIG. 4A, 4B)",[1]; [4],no difference in the relaxation response

# From patent US20030050305A1, “Thromboxane inhibitors, compositions and methods of use” (priority 2000, published 2003)
